Laboratory results taken from patent publication US11376268B2, “Methods and materials for treating human immunodeficiency virus infections” (priority 2015, dated 2022).

Legend:
[1] = test system: J-Lat cells (a model of HIV latency, using GFP tagged HIV); assay: J-Lat cells flow cytometry for HIV GFP expression and activated caspase 3 (FIG. 6); assay type: cell-based; settings: 24 hours, bortezomib 1, 10, or 20 nM, MLN-2238 (ixazomib) 10 or 50 nM
Method: FIG. 6 contains flow cytometry results of J-Lat cells (a model of HIV latency, using GFP tagged HIV) treated with nothing, bortezomib (1, 10, or 20 nM), or MLN-2238 (ixazomib; 10 or 50 nM) and analyzed 24 hours later for activated caspase 3 expression and for HIV expression.

[2] = test system: CD4 T cells from an HIV positive patient with ART suppressed HIV replication; assay: Flow cytometry of CD4 T cells from an HIV positive patient for intracellular p24 and activated caspase 3 (FIG. 7); assay type: cell-based, human; settings: 48 hours
Method: FIG. 7 contains flow cytometry results of CD4 T cells from an HIV positive patient with ART suppressed HIV replication. Cells were treated with bortezomib or MLN-2238 (ixazomib) at the indicated doses and analyzed 48 hours later for intracellular p24 expression (as a measure of HIV reactivation), and for activated caspase 3 expression (as a measure of cell death).

[3] = test system: J-Lat cells (a model of HIV latency using GFP HIV); assay: J-Lat cells time course flow cytometry (FIG. 8); assay type: cell-based; settings: analyzed at 24, 48, and 72 hours
Method: J-Lat cells (a model of HIV latency using GFP HIV) were treated with bortezomib or ixazomib at the indicated doses and analyzed at 24, 48, and 72 hours.

HIV-LTR = assay: Luc expression in primary CD4 T cells infected with HIV luc or transfected with HIV-LTR Luc (FIG. 9); assay type: cell-based; settings: primary CD4 T cells infected with HIV luc or transfected with HIV-LTR Luc and TK renilla
Method: Primary CD4 T cells infected with HIV luc (top panel) or primary CD4 T cells transfected with HIV-LTR Luc and co-transfected TK renilla (bottom panel) were treated with the indicated doses of bortezomib or ixazomib, and analyzed for Luc expression as a measure of HIV reactivation.

HDAC-1 = HDAC-1 expression in primary CD4 T cells (FIG. 11); assay type: cell-based
Method: (§1) FIG. 11. […] Proteosome inhibitors were analyzed for the ability to alter the expression of HDAC. Bortezomib and ixazomib decreased HDAC-1, HDAC-3, and HDAC-4 expression in primary CD4 T cells.

HDAC-3 = HDAC-3 expression in primary CD4 T cells (FIG. 11); assay type: cell-based
Method: as §1

HDAC-4 = HDAC-4 expression in primary CD4 T cells (FIG. 11); assay type: cell-based
Method: as §1

UPR pathway [4] = assay: UPR pathway activation in J Lat cells: phospho PERK, phospho IRE1, JNK (FIG. 12); assay type: cell-based; settings: bortezomib (10 nM) or ixazomib (50 nM)
Method: FIG. 12. J-LAT-10.6 or Jurkat cells were treated with bortezomib (10 nM) or ixazomib (50 nM) for the indicated times. Bortezomib and ixazomib induced phospho PERK, phospho IRE1, and JNK activation in J Lat cells, indicating the activation of the UPR pathway.

UPR pathway [5] = assay: UPR pathway activation in J Lat cells: ATF4 and CHOP nuclear translocation, ATF6 cleavage (FIG. 13); assay type: cell-based; settings: bortezomib (10 nM) or ixazomib (50 nM)
Method: FIG. 13. J-LAT-10.6 or Jurkat cells were treated with bortezomib (10 nM) or ixazomib (50 nM) for the indicated times. Bortezomib and ixazomib induced ATF4 and CHOP translocation into the nucleus, and ATF6 cleavage in J Lat cells, indicating the activation of the UPR pathway.

CC(C)C[C@H](NC(=O)[C@H](Cc1ccccc1)NC(=O)c1cnccn1)B(O)O [bortezomib, N-pyrazinecarbonyl-L-phenylalanine-L-leucine boronic acid]
HIV reactivation (HIV GFP expression) [1]: caused HIV reactivation as indicated by increased HIV GFP expression | death of HIV GFP positive cells (activated caspase 3 expression) [1]: caused HIV GFP positive cells to die | HIV reactivation (intracellular p24 expression) [2]: caused HIV reactivation as indicated by increased HIV p24 expression | death of HIV positive cells (activated caspase 3 expression in p24 positive cells) [2]: caused HIV positive cells to die | HIV reactivation from latency [3]: caused HIV reactivation from latency | HIV reactivation (Luc expression) (HIV-LTR): independently reactivated HIV | HDAC-1 expression (HDAC-1): decreased | HDAC-3 expression (HDAC-3): decreased | HDAC-4 expression (HDAC-4): decreased | JNK activation (UPR pathway [4]): induced | phospho IRE1 (UPR pathway [4]): induced | phospho PERK (UPR pathway [4]): induced | ATF4 translocation into the nucleus (UPR pathway [5]): induced | ATF6 cleavage (UPR pathway [5]): induced | CHOP translocation into the nucleus (UPR pathway [5]): induced
